Reference: the supplement of paper PMC10307832

Experiments:
Assay in all cases: relative viability (nuclei count vs DMSO), 5 days (fraction); higher = more cells survive
AZD6482 + Vorinostat = compound: Cc1cc([C@@H](C)Nc2ccccc2C(=O)O)c2nc(N3CCOCC3)cc(=O)n2c1 [AZD6482] + O=C(CCCCCCC(=O)Nc1ccccc1)NO [Vorinostat] (partner 1 µM)
In short: (§1)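 Relative viability was taken as the ratio of nuclei in treated wells to nuclei in vehicle wells. Lung cancer cell lines in 1536-well plates received compounds by pin tool one day after seeding, either one drug alone or a fixed anchor-drug dose plus five library-drug doses (not always all listed) in √10 steps. Nuclei were counted on 4× images after 5 days of treatment, and values are medians of duplicate plates.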

[1] = compound: COc1cc2nc(N3CCCN(C)CC3)nc(NC3CCN(Cc4ccccc4)CC3)c2cc1OC + Cc1nc(Nc2ncc(C(=O)Nc3c(C)cccc3Cl)s2)cc(N2CCN(CCO)CC2)n1 [Dasatinib] (partner 0.075 µM)
In short: as §1

AZD6482 + OSI-027 = compound: Cc1cc([C@@H](C)Nc2ccccc2C(=O)O)c2nc(N3CCOCC3)cc(=O)n2c1 [AZD6482] + COc1cccc2cc(-c3nc([C@H]4CC[C@H](C(=O)O)CC4)n4ncnc(N)c34)[nH]c12 [OSI-027] (partner 0.5 µM)
In short: as §1

AZD6482 + Alpelisib = compound: Cc1cc([C@@H](C)Nc2ccccc2C(=O)O)c2nc(N3CCOCC3)cc(=O)n2c1 [AZD6482] + Cc1nc(NC(=O)N2CCC[C@H]2C(N)=O)sc1-c1ccnc(C(C)(C)C(F)(F)F)c1 [Alpelisib] (partner 2 µM)
In short: as §1

## NCI-H2342
AZD6482 + Vorinostat; first compound 0.08 µM
  relative viability: 0.733
AZD6482 + Vorinostat; first compound 0.253 µM
  relative viability: 0.683
AZD6482 + Vorinostat; first compound 0.8 µM
  relative viability: 0.71
AZD6482 + Vorinostat; first compound 2.53 µM
  relative viability: 0.518
AZD6482 + Vorinostat; first compound 8 µM
  relative viability: 0.48
[1]; first compound 0.2 µM
  relative viability: 0.34
[1]; first compound 0.6325 µM
  relative viability: 0.295
[1]; first compound 2 µM
  relative viability: 0.311
[1]; first compound 6.325 µM
  relative viability: 0.312
AZD6482 + OSI-027; first compound 0.08 µM
  relative viability: 0.542
AZD6482 + OSI-027; first compound 0.253 µM
  relative viability: 0.586
AZD6482 + OSI-027; first compound 0.8 µM
  relative viability: 0.568
AZD6482 + OSI-027; first compound 2.53 µM
  relative viability: 0.448
AZD6482 + OSI-027; first compound 8 µM
  relative viability: 0.471

## HCC-15
AZD6482 + Vorinostat; first compound 0.08 µM
  relative viability: 0.778
AZD6482 + Vorinostat; first compound 0.253 µM
  relative viability: 0.806
AZD6482 + Vorinostat; first compound 0.8 µM
  relative viability: 0.858
AZD6482 + Vorinostat; first compound 2.53 µM
  relative viability: 0.685
AZD6482 + Vorinostat; first compound 8 µM
  relative viability: 0.739
[1]; first compound 0.2 µM
  relative viability: 0.632
[1]; first compound 0.6325 µM
  relative viability: 0.706
[1]; first compound 2 µM
  relative viability: 0.654
[1]; first compound 6.325 µM
  relative viability: 0.44
AZD6482 + Alpelisib; first compound 0.08 µM
  relative viability: 0.856
AZD6482 + Alpelisib; first compound 0.253 µM
  relative viability: 0.797
AZD6482 + Alpelisib; first compound 0.8 µM
  relative viability: 0.861
AZD6482 + Alpelisib; first compound 2.53 µM
  relative viability: 0.736
AZD6482 + Alpelisib; first compound 8 µM
  relative viability: 0.772
AZD6482 + OSI-027; first compound 0.08 µM
  relative viability: 0.672
AZD6482 + OSI-027; first compound 0.253 µM
  relative viability: 0.61
AZD6482 + OSI-027; first compound 0.8 µM
  relative viability: 0.666
AZD6482 + OSI-027; first compound 2.53 µM
  relative viability: 0.385
AZD6482 + OSI-027; first compound 8 µM
  relative viability: 0.485

## A-427
AZD6482 + Vorinostat; first compound 0.08 µM
  relative viability: 0.806
AZD6482 + Vorinostat; first compound 0.253 µM
  relative viability: 0.843
AZD6482 + Vorinostat; first compound 0.8 µM
  relative viability: 0.87
AZD6482 + Vorinostat; first compound 2.53 µM
  relative viability: 0.706
AZD6482 + Vorinostat; first compound 8 µM
  relative viability: 0.826
[1]; first compound 0.2 µM
  relative viability: 0.64
[1]; first compound 0.6325 µM
  relative viability: 0.707
[1]; first compound 2 µM
  relative viability: 0.749
[1]; first compound 6.325 µM
  relative viability: 0.651
AZD6482 + Alpelisib; first compound 0.08 µM
  relative viability: 1.08
AZD6482 + Alpelisib; first compound 0.253 µM
  relative viability: 0.967
AZD6482 + Alpelisib; first compound 0.8 µM
  relative viability: 1.04
AZD6482 + Alpelisib; first compound 2.53 µM
  relative viability: 0.952
AZD6482 + Alpelisib; first compound 8 µM
  relative viability: 1.06
AZD6482 + OSI-027; first compound 0.08 µM
  relative viability: 0.458
AZD6482 + OSI-027; first compound 0.253 µM
  relative viability: 0.348
AZD6482 + OSI-027; first compound 0.8 µM
  relative viability: 0.52
AZD6482 + OSI-027; first compound 8 µM
  relative viability: 0.423

## NCI-H2228
AZD6482 + Vorinostat; first compound 0.08 µM
  relative viability: 0.482
AZD6482 + Vorinostat; first compound 0.253 µM
  relative viability: 0.302
AZD6482 + Vorinostat; first compound 0.8 µM
  relative viability: 0.798
AZD6482 + Vorinostat; first compound 2.53 µM
  relative viability: 0.555
AZD6482 + Vorinostat; first compound 8 µM
  relative viability: 0.904
[1]; first compound 0.2 µM
  relative viability: 0.514
[1]; first compound 0.6325 µM
  relative viability: 0.488
[1]; first compound 2 µM
  relative viability: 0.496
[1]; first compound 6.325 µM
  relative viability: 0.243
AZD6482 + Alpelisib; first compound 0.08 µM
  relative viability: 0.477
AZD6482 + Alpelisib; first compound 0.253 µM
  relative viability: 0.589
AZD6482 + Alpelisib; first compound 0.8 µM
  relative viability: 0.578
AZD6482 + Alpelisib; first compound 2.53 µM
  relative viability: 0.397
AZD6482 + Alpelisib; first compound 8 µM
  relative viability: 0.539
AZD6482 + OSI-027; first compound 0.253 µM
  relative viability: 0.316
AZD6482 + OSI-027; first compound 0.8 µM
  relative viability: 0.548
AZD6482 + OSI-027; first compound 2.53 µM
  relative viability: 0.358
AZD6482 + OSI-027; first compound 8 µM
  relative viability: 0.445

## NCI-H1734
AZD6482 + Vorinostat; first compound 0.08 µM
  relative viability: 0.804
AZD6482 + Vorinostat; first compound 0.253 µM
  relative viability: 0.68
AZD6482 + Vorinostat; first compound 0.8 µM
  relative viability: 0.801
AZD6482 + Vorinostat; first compound 2.53 µM
  relative viability: 0.52
AZD6482 + Vorinostat; first compound 8 µM
  relative viability: 0.582
[1]; first compound 0.2 µM
  relative viability: 0.524
[1]; first compound 0.6325 µM
  relative viability: 0.37
[1]; first compound 2 µM
  relative viability: 0.46
[1]; first compound 6.325 µM
  relative viability: 0.416
AZD6482 + Alpelisib; first compound 0.08 µM
  relative viability: 0.416
AZD6482 + Alpelisib; first compound 0.253 µM
  relative viability: 0.444
AZD6482 + Alpelisib; first compound 0.8 µM
  relative viability: 0.431
AZD6482 + Alpelisib; first compound 2.53 µM
  relative viability: 0.338
AZD6482 + Alpelisib; first compound 8 µM
  relative viability: 0.521
AZD6482 + OSI-027; first compound 0.08 µM
  relative viability: 0.46
AZD6482 + OSI-027; first compound 0.253 µM
  relative viability: 0.509
AZD6482 + OSI-027; first compound 0.8 µM
  relative viability: 0.542
AZD6482 + OSI-027; first compound 2.53 µM
  relative viability: 0.362
AZD6482 + OSI-027; first compound 8 µM
  relative viability: 0.387

## PC-14
AZD6482 + Vorinostat; first compound 0.08 µM
  relative viability: 0.667
AZD6482 + Vorinostat; first compound 0.253 µM
  relative viability: 0.716
AZD6482 + Vorinostat; first compound 0.8 µM
  relative viability: 0.712
AZD6482 + Vorinostat; first compound 2.53 µM
  relative viability: 0.487
AZD6482 + Vorinostat; first compound 8 µM
  relative viability: 0.769
[1]; first compound 0.2 µM
  relative viability: 0.236
[1]; first compound 0.6325 µM
  relative viability: 0.277
[1]; first compound 2 µM
  relative viability: 0.197
[1]; first compound 6.325 µM
  relative viability: 0.0162
AZD6482 + Alpelisib; first compound 0.08 µM
  relative viability: 0.857
AZD6482 + Alpelisib; first compound 0.253 µM
  relative viability: 0.882
AZD6482 + Alpelisib; first compound 0.8 µM
  relative viability: 0.832
AZD6482 + Alpelisib; first compound 2.53 µM
  relative viability: 0.663
AZD6482 + Alpelisib; first compound 8 µM
  relative viability: 0.807
AZD6482 + OSI-027; first compound 0.08 µM
  relative viability: 0.723
AZD6482 + OSI-027; first compound 0.253 µM
  relative viability: 1.04
AZD6482 + OSI-027; first compound 0.8 µM
  relative viability: 0.841
AZD6482 + OSI-027; first compound 2.53 µM
  relative viability: 0.658
AZD6482 + OSI-027; first compound 8 µM
  relative viability: 0.954

## NCI-H1915
AZD6482 + Vorinostat; first compound 0.08 µM
  relative viability: 0.432
AZD6482 + Vorinostat; first compound 0.253 µM
  relative viability: 0.467
AZD6482 + Vorinostat; first compound 0.8 µM
  relative viability: 0.538
AZD6482 + Vorinostat; first compound 2.53 µM
  relative viability: 0.4
AZD6482 + Vorinostat; first compound 8 µM
  relative viability: 0.462
[1]; first compound 0.2 µM
  relative viability: 0.35
[1]; first compound 0.6325 µM
  relative viability: 0.355
[1]; first compound 2 µM
  relative viability: 0.338
[1]; first compound 6.325 µM
  relative viability: 0.349
AZD6482 + Alpelisib; first compound 0.08 µM
  relative viability: 1.04
AZD6482 + Alpelisib; first compound 0.253 µM
  relative viability: 1.02
AZD6482 + Alpelisib; first compound 0.8 µM
  relative viability: 1.1
AZD6482 + Alpelisib; first compound 2.53 µM
  relative viability: 0.958
AZD6482 + Alpelisib; first compound 8 µM
  relative viability: 1.05
AZD6482 + OSI-027; first compound 0.08 µM
  relative viability: 0.575
AZD6482 + OSI-027; first compound 0.253 µM
  relative viability: 0.57
AZD6482 + OSI-027; first compound 0.8 µM
  relative viability: 0.689
AZD6482 + OSI-027; first compound 2.53 µM
  relative viability: 0.505
AZD6482 + OSI-027; first compound 8 µM
  relative viability: 0.595

## NCI-H1623
[1]; first compound 0.2 µM
  relative viability: 0.517
[1]; first compound 0.6325 µM
  relative viability: 0.604
[1]; first compound 2 µM
  relative viability: 0.507
[1]; first compound 6.325 µM
  relative viability: 0.524
AZD6482 + OSI-027; first compound 0.08 µM
  relative viability: 0.392
AZD6482 + OSI-027; first compound 0.253 µM
  relative viability: 0.404
AZD6482 + OSI-027; first compound 0.8 µM
  relative viability: 0.432
AZD6482 + OSI-027; first compound 2.53 µM
  relative viability: 0.388
AZD6482 + OSI-027; first compound 8 µM
  relative viability: 0.397

## Calu-6
AZD6482 + Alpelisib; first compound 0.08 µM
  relative viability: 0.812
AZD6482 + Alpelisib; first compound 0.253 µM
  relative viability: 0.847
AZD6482 + Alpelisib; first compound 0.8 µM
  relative viability: 0.873
AZD6482 + Alpelisib; first compound 2.53 µM
  relative viability: 0.75
AZD6482 + Alpelisib; first compound 8 µM
  relative viability: 0.926
